# Results from US10597388B2, “Pyridazinone herbicides” (FMC CORPORATION, priority 2014, dated 2020).
# Experiments:
# Test in all cases: Test D controlled growth environment herbicide test, pre- and postemergence
# Format in all cases: in vivo
# [1] = system: barley, winter (winter barley, Hordeum vulgare)
# Outline: (§1)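 Species sown in silt loam and sprayed preemergence, or grown in peat-based medium to 2–18 cm (1- to 4-leaf stage) and sprayed postemergence, with compounds in non-phytotoxic solvent plus surfactant. Visual injury scored versus controls after 14–21 d in a controlled environment, 0 (no effect) to 100 (complete control).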
# [2] = system: buckwheat, wild (wild buckwheat, Polygonum convolvulus)
# Outline: as §1
# [3] = system: blackgrass (Alopecurus myosuroides)
# Outline: as §1
# [4] = system: chickweed (common chickweed, Stellaria media)
# Outline: as §1
# [5] = system: galium (catchweed bedstraw, Galium aparine)
# Outline: as §1
# [6] = system: oilseed rape (Brassica napus)
# Outline: as §1
# [7] = system: bromegrass, downy (downy bromegrass, Bromus tectorum)
# Outline: as §1
# [8] = system: lambsquarters (Chenopodium album)
# Outline: as §1
# [9] = system: speedwell (bird's-eye speedwell, Veronica persica)
# Outline: as §1
# [10] = system: chamomile (scentless chamomile, Matricaria inodora)
# Outline: as §1
# [11] = system: canarygrass (Phalaris minor)
# Outline: as §1
# [12] = system: ryegrass, Italian (Italian ryegrass, Lolium multiflorum)
# Outline: as §1
# [13] = system: field poppy (Papaver rhoeas)
# Outline: as §1
# [14] = Postemergence, 31 g ai/ha, scale 0 to 100 (0 no effect, 100 complete control)
# [15] = Postemergence, 125 g ai/ha, visual rating on scale 0 (no effect) to 100 (complete control), 14 to 21 d
# [16] = Postemergence, 250 g ai/ha, scale 0 to 100 (0 no effect, 100 complete control)
# [17] = Preemergence, 62 g ai/ha, scale 0 to 100 (0 no effect, 100 complete control)
# [18] = Preemergence, 125 g ai/ha, scale 0 to 100 (0 no effect, 100 complete control)
# [19] = Preemergence, 250 g ai/ha, scale 0 to 100 (0 no effect, 100 complete control)
# [20] = postemergence, 62 g ai/ha, scale 0 to 100, 0 no effect, 100 complete control
compound,measurement,setting,value
CCC(=O)Oc1c(C)nn(C)c(=O)c1-c1c(C)sc2ccc(Cl)cc12 [Compound 109],"Barley, Winter plant response rating",[1]; [14],5
same,"Plant response rating, Barley, Winter",[1]; [15],5
same,"Plant response rating, Barley, Winter",[1]; [16],20
same,"Plant response rating (scale of 0 to 100), Barley, Winter","[1]; Preemergence, 31 g ai/ha",0
same,"Plant response rating, Barley, Winter",[1]; [17],0
same,"Plant response rating, Barley, Winter",[1]; [18],0
same,"Plant response rating, Barley, Winter",[1]; [19],10
same,"Plant response rating, Barley, Winter",[1]; [20],0
same,"Buckwheat, Wild plant response rating",[2]; [14],95
same,"Plant response rating, Buckwheat, Wild",[2]; [15],100
same,"Plant response rating, Buckwheat, Wild",[2]; [16],100
same,"Plant response rating (scale of 0 to 100), Buckwheat, Wild","[2]; Preemergence, 31 g ai/ha",0
same,"Plant response rating, Buckwheat, Wild",[2]; [17],20
same,"Plant response rating, Buckwheat, Wild",[2]; [18],30
same,"Plant response rating, Buckwheat, Wild",[2]; [19],75
same,"Plant response rating, Buckwheat, Wild",[2]; [20],95
same,Blackgrass plant response rating,[3]; [14],20
same,"Plant response rating, Blackgrass",[3]; [15],65
same,"Plant response rating, Blackgrass",[3]; [16],75
same,"Plant response rating (scale of 0 to 100), Blackgrass","[3]; Preemergence, 31 g ai/ha",25
same,"Plant response rating, Blackgrass",[3]; [17],25
same,"Plant response rating, Blackgrass",[3]; [18],75
same,"Plant response rating, Blackgrass",[3]; [19],80
same,"Plant response rating, Blackgrass",[3]; [20],30
same,Chickweed plant response rating,[4]; [14],100
same,"Plant response rating, Chickweed",[4]; [15],100
same,"Plant response rating, Chickweed",[4]; [16],100
same,"Plant response rating (scale of 0 to 100), Chickweed","[4]; Preemergence, 31 g ai/ha",100
same,"Plant response rating (scale of 0 to 100), Chickweed","[4]; Preemergence, 62 g ai/ha",100
same,"Plant response rating, Chickweed",[4]; [18],100
same,"Plant response rating, Chickweed",[4]; [19],100
same,"Plant response rating, Chickweed",[4]; [20],100
same,Galium plant response rating,[5]; [14],100
same,"Plant response rating, Galium",[5]; [15],100
same,"Plant response rating, Galium",[5]; [16],100
same,"Plant response rating (scale of 0 to 100), Galium","[5]; Preemergence, 31 g ai/ha",40
same,"Plant response rating (scale of 0 to 100), Galium","[5]; Preemergence, 62 g ai/ha",75
same,"Plant response rating, Galium",[5]; [18],100
same,"Plant response rating, Galium",[5]; [19],100
same,"Plant response rating, Galium",[5]; [20],100
same,Oilseed Rape plant response rating,[6]; [14],65
same,"Plant response rating, Oilseed Rape",[6]; [15],75
same,"Plant response rating, Oilseed Rape",[6]; [16],85
same,"Plant response rating (scale of 0 to 100), Oilseed Rape","[6]; Preemergence, 31 g ai/ha",15
same,"Plant response rating (scale of 0 to 100), Oilseed Rape","[6]; Preemergence, 62 g ai/ha",40
same,"Plant response rating, Oilseed Rape",[6]; [18],75
same,"Plant response rating, Oilseed Rape",[6]; [19],85
same,"Plant response rating, Oilseed Rape",[6]; [20],70
same,"Bromegrass, Downy plant response rating",[7]; [14],30
same,"Plant response rating, Bromegrass, Downy",[7]; [15],60
same,"Plant response rating, Bromegrass, Downy",[7]; [16],75
same,"Plant response rating (scale of 0 to 100), Bromegrass, Downy","[7]; Preemergence, 31 g ai/ha",0
same,"Plant response rating, Bromegrass, Downy",[7]; [17],30
same,"Plant response rating, Bromegrass, Downy",[7]; [18],65
same,"Plant response rating, Bromegrass, Downy",[7]; [19],65
same,"Plant response rating, Bromegrass, Downy",[7]; [20],30
same,Lambsquarters plant response rating,[8]; [14],90
same,"Plant response rating, Lambsquarters",[8]; [15],95
same,"Plant response rating, Lambsquarters",[8]; [16],100
same,"Plant response rating (scale of 0 to 100), Lambsquarters","[8]; Preemergence, 31 g ai/ha",95
same,"Plant response rating (scale of 0 to 100), Lambsquarters","[8]; Preemergence, 62 g ai/ha",100
same,"Plant response rating, Lambsquarters",[8]; [18],100
same,"Plant response rating, Lambsquarters",[8]; [19],100
same,"Plant response rating, Lambsquarters",[8]; [20],95
same,Speedwell plant response rating,[9]; [14],50
same,"Plant response rating, Speedwell",[9]; [15],75
same,"Plant response rating, Speedwell",[9]; [16],100
same,"Plant response rating, Speedwell",[9]; [20],60
same,Chamomile plant response rating,[10]; [14],80
same,"Plant response rating, Chamomile",[10]; [15],95
same,"Plant response rating, Chamomile",[10]; [16],100
same,"Plant response rating, Chamomile",[10]; [20],85
same,Canarygrass plant response rating,[11]; [14],40
same,"Plant response rating, Canarygrass",[11]; [15],80
same,"Plant response rating, Canarygrass",[11]; [16],90
same,"Plant response rating (scale of 0 to 100), Canarygrass","[11]; Preemergence, 31 g ai/ha",35
same,"Plant response rating (scale of 0 to 100), Canarygrass","[11]; Preemergence, 62 g ai/ha",75
same,"Plant response rating, Canarygrass",[11]; [18],90
same,"Plant response rating, Canarygrass",[11]; [19],98
same,"Plant response rating, Canarygrass",[11]; [20],55
same,"Ryegrass, Italian plant response rating",[12]; [14],85
same,"Plant response rating, Ryegrass, Italian",[12]; [15],95
same,"Plant response rating, Ryegrass, Italian",[12]; [16],100
same,"Plant response rating (scale of 0 to 100), Ryegrass, Italian","[12]; Preemergence, 31 g ai/ha",80
same,"Plant response rating (scale of 0 to 100), Ryegrass, Italian","[12]; Preemergence, 62 g ai/ha",95
same,"Plant response rating, Ryegrass, Italian",[12]; [18],100
same,"Plant response rating, Ryegrass, Italian",[12]; [19],100
same,"Plant response rating, Ryegrass, Italian",[12]; [20],85
same,Field Poppy plant response rating,[13]; [14],45
same,"Plant response rating, Field Poppy",[13]; [15],75
same,"Plant response rating, Field Poppy",[13]; [16],85
same,"Plant response rating (scale of 0 to 100), Field Poppy","[13]; Preemergence, 31 g ai/ha",100
same,"Plant response rating (scale of 0 to 100), Field Poppy","[13]; Preemergence, 62 g ai/ha",100
same,"Plant response rating, Field Poppy",[13]; [18],100
same,"Plant response rating, Field Poppy",[13]; [19],100
same,"Plant response rating, Field Poppy",[13]; [20],50
